In a melting point compilation (Tetko et al.; mined from patent text by program, amines drawn as free bases though some values may be those of a salt) one finds melting point data, which are given here for 64 compounds.

Take `O=C(NO)c1ccc(-c2c3ccccc3nn2Cc2ccccc2)cc1`: the melting point (usually the temperature of the solid-liquid transition) lay in the range of 201 to 203 °C.
Compound `C#CCN1C(=O)COc2cc(F)ccc21` showed a melting point of 98 to 100 °C.
Take `CC(C)(C)OC(=O)ON1C(C)(C)CC(OC(=O)c2ccccc2)CC1(C)C`: the melting point was 109 to 111 °C.
The compound `Cc1nc(C)c(Cl)c(NCc2nccc(OCCCCN3CCN(Cc4ccncc4)CC3)c2C)n1` gave a melting point of 157 to 158 °C.
With `Cc1noc(C)c1-c1cn(Cc2ccccc2)c(=O)c2cccnc12`, the melting point lay within 192 to 195 °C.
On to `CS(=O)c1cc(=O)c2ccc(N3CCOCC3)cc2s1` (centres undefined), for which the melting point lay in the range of 198 to 200 °C.
Compound `CN(CC(=O)NO)C(=O)[C@H]1CCCC[C@H]1C(=O)O` (relative stereo) came in with a melting point of 131 to 133 °C.
`CCCC1(C(=O)NCCCCCO)c2ccccc2-c2ccccc21` showed a melting point of 48 to 51 °C.
As for `COc1cc(-c2nn(C)c(C(F)(F)F)c2Cl)c(F)cc1[N+](=O)[O-]`, the figure is 115 to 116 °C.
As for `CS(=O)(=O)C(=C1CN(C(c2ccccc2)c2ccccc2)C1)c1cccc2ccccc12`, the figure is 196 °C; as for `CCN(CC)CCOc1ccc(-c2oc3ccc(Cl)cc3c2C(=O)c2cc(C)cc(C)c2)cc1`, 161 to 162 °C.
`CCCc1cc(Cl)c2oc(-c3ccccc3)c(C)c2c1O` yielded a melting point of 102 to 104 °C.
For the compound `O=C(CO)NCCCOCCCCOCCCNC(=O)CO`, the melting point was in the range of 67 to 71 °C.
`CC(C)(C)OC(=O)NC1Cc2ccc(NC(=O)c3ccccc3-c3ccc(C(F)(F)F)cc3)cc2C1` (centres undefined) gave a melting point of 198 to 201 °C.
The compound `O=[N+]([O-])N=C1NCCCN1CC1CCOC1` (centres undefined) registered a melting point of 87.5 to 90.8 °C.
With `Fc1ccc(-c2cc3ccccc3[nH]c2=S)cc1`, the melting point lay in the range of 259 to 262 °C.
For `CC(C)(C)NCC(O)c1ccc(OCc2ccccc2)c(C(N)=O)c1` (centres undefined), the melting point is 120 °C.
In turn, `Cc1cc(S(C)(=O)=O)ccc1C(=O)c1c(S(C)=O)noc1C1CC1` (centres undefined) returned a melting point of 142 °C.
The compound `Cc1ccc(C=CCN2CCc3nc(N)sc3CC2)cn1` gave a melting point of 180 to 184 °C.
As for `CC(C)(C)c1cc(CCc2ccccc2NC(=O)NC(c2ccccc2)c2ccccc2)cc(C(C)(C)C)c1O`, the figure is 187 °C.
`CCCCc1nc(Cl)c(C(=O)O)n1Cc1ccc(-c2ccccc2I)cc1` yielded a melting point of 175 °C.
Compound `O=c1[nH]c(=O)c2nc3ccccc3nc2[nH]1` registered a melting point of 300 °C.
In turn, `CCCCNC(=O)NS(=O)(=O)c1ccccc1-c1ccno1` showed a melting point of 110 to 113 °C.
As to `CCCCCCCCCc1ccc(C(Sc2cccc(NC(=O)CC(=O)OC)c2)C(=O)CCCC(=O)OC)cc1` (centres undefined), the melting point is 88 to 91 °C.
In the case of `COc1ccc2c(c1)c(C1=C(c3cn(C)c4ccc(OC)cc34)C(=O)N(C)C1=O)cn2C`, the melting point was 114 to 117 °C.
`Brc1cnc(SCc2ccccc2)nc1` showed a melting point of 68 to 69 °C.
Then `CCNc1ccc(C(=O)Nc2ccc3ccc(OC)nc3n2)cc1`, with 134 °C; and `CCOC(=O)Cc1sc(Sc2cc(C(F)(F)F)ccn2)nc1C`, with 57 to 59 °C.
As to `CCCc1cc(O)nc(NCC)n1`, the melting point lay within 108 to 110 °C.
Turning to `COc1c(Cl)ccc(-c2cc(N)c(Cl)c(C(=O)NOC3C=CCCC3)n2)c1F` (centres undefined), the melting point was 180 to 182 °C.
In turn, `COc1ccc(C(=O)/C(=C\c2ccccc2)C(=O)OC(C)(C)C)c(O)c1` yielded a melting point of 105 to 107 °C.
Compound `CCCn1nc(-c2ccc(F)cc2)c(-c2ccc(S(C)(=O)=O)cc2)cc1=O` showed a melting point of 155 to 157 °C.
As for `Cc1c(F)c([N+](=O)[O-])cc2oc(=O)[nH]c12`, the figure is 194 to 196 °C; as for `NC(=O)c1cc(F)c(-n2ncc(Cl)c(Cl)c2=O)cc1F`, > 260 °C; as for `CCCCCS(=O)(=O)NC(=O)/C=C/c1ccc(OCC(O)COC(C)C)cc1Oc1ncc(C(F)(F)F)cc1Cl` (centres undefined), 86 to 88 °C.
For `COc1ccc2[nH]c(SCc3ncc(C)c(N4CCCC4)c3Cl)nc2c1`, the melting point lay within 152 to 158 °C.
As for `Cc1nc(C)c(C(=O)Nc2cccc3c2C(C)CC3(C)C)s1` (centres undefined), the figure is 117 to 118 °C; as for `O=C(O)c1cn(-c2ccc(F)c(O)c2)c2c(Cl)c(F)c(F)cc2c1=O`, > 280 °C.
In turn, `CC(Cl)c1ccccc1S(N)(=O)=O` (centres undefined) showed a melting point of 121 to 122 °C.
As for `Clc1ccc(-c2nnco2)cc1`, the melting point stood at 129 °C.
In turn, `CCOC(=O)C1=C(N)NC(N)=C(C(=O)OCC)C1c1c(OC)ncnc1OC` gave a melting point of 219 °C.
`O=C(O)Cc1c(C(=O)c2ccc(-c3nccs3)cc2)[nH]c2cc(Cl)ccc12` came in with a melting point of 230 to 233 °C.
Then `O=C(O)CCc1ccc(OCc2sc3ccccc3c2Cl)cc1`, with 136 to 137 °C; and `Cc1ccc(S(=O)(=O)n2c(=O)[nH]c3cc(Cl)ccc3c2=O)cc1C`, with > 250 °C; and `COc1cc(Nc2c(C#N)cnc3cc(/C=C/CCN4CCOCC4)c(OC)cc23)c(Cl)cc1Cl`, with 141 to 143 °C.
As for `CC(=O)Oc1c(C)c(CCl)nc2ccccc12`, the melting point was in the range of 108 to 109 °C.
Take `O=C(Cn1ccnc1)N1CCC(Oc2c(F)c(F)c(F)c(F)c2F)CC1`: the melting point lay within 95 to 96 °C.
Compound `Cn1nc(N2c3cc(F)ccc3CC2C(=O)N2CCCCCC2)ccc1=O` (centres undefined) gave a melting point of 204 to 207 °C.
The compound `COc1ccc(CCCCCCCCO)cc1` showed a melting point of 47 to 49 °C.
For the compound `CCCc1nc(C(O)C(C)(C)C)c(C(=O)O)n1Cc1ccc(-c2ccccc2C(=O)OC(C)(C)C)cc1` (centres undefined), the melting point turned out to be 207 °C.
Compound `O=c1c2cc(Cl)cc(Br)c2ncn1CCCN1CC=C(c2c[nH]c3ccccc23)CC1` came in with a melting point of 192 °C.
In turn, `O=C1C(=O)c2ccc(-c3ccncc3)cc2C2=C1SCC1(CCN(C(=O)c3cccc(Cl)c3)CC1)O2` returned a melting point of 265 to 267 °C.
Turning to `O=C1CCCN(C(=O)c2ccc(Cl)cc2)C(=O)CCc2cc(Cl)ccc21`, the melting point was in the range of 141 to 143 °C.
Take `O=C(c1ccc2c(c1)OCC(CN1CCOCC1)N2)N1CCOCC1` (centres undefined): the melting point was in the range of 125 to 126 °C.
Then `CN1CCN(c2nc(N)c3c(n2)CCCS3)CC1`, with 140 to 141 °C; and `NS(=O)(=O)c1cccc(-c2noc(-c3cnn4c(C(F)(F)F)cc(-c5ccc(C(F)(F)F)cc5)nc34)n2)c1`, with 262 °C.
For the compound `CCOC(=O)c1csc(C2OC(CO)C(O)C2O)n1` (centres undefined), the melting point lay in the range of 62 to 64 °C.
As for `Cc1ncc(CNC(=O)c2nc3n(c(=O)c2O)CCOC3(C)C)s1`, the figure is 245 °C.
As for `O=C(Nc1ccc(-n2nc(C(F)(F)F)cc2C(F)(F)F)cc1)c1cccc([N+](=O)[O-])c1`, the melting point was 203 to 204 °C.
Take `CCn1ncc2c(Cl)c(C=O)cnc21`: the melting point was in the range of 89 to 90 °C.
In the case of `CCOC(=O)C1CCn2c(cc3ccccc32)C1O` (centres undefined), the melting point was 116 to 120 °C.
Compound `CCCCCCCCCCCC1=NCCO1` yielded a melting point of 71 to 74 °C.
Consider `CCOc1ccc(C(=O)N2CCc3nnc(NN)cc3C2)cc1`, for which the melting point lay within 171 to 173 °C.
In turn, `CCOC(=O)c1c(Nc2ccc(F)cc2[N+](=O)[O-])nn(C)c1C` registered a melting point of 174 °C.
